This is an account of results in paper PMC4310350 (Drug Design, Development and Therapy, 2015).

Data set [1] addresses T1, OCT1 (Homo sapiens, UniProt O15245).
T1 sequence (O15245 1-554): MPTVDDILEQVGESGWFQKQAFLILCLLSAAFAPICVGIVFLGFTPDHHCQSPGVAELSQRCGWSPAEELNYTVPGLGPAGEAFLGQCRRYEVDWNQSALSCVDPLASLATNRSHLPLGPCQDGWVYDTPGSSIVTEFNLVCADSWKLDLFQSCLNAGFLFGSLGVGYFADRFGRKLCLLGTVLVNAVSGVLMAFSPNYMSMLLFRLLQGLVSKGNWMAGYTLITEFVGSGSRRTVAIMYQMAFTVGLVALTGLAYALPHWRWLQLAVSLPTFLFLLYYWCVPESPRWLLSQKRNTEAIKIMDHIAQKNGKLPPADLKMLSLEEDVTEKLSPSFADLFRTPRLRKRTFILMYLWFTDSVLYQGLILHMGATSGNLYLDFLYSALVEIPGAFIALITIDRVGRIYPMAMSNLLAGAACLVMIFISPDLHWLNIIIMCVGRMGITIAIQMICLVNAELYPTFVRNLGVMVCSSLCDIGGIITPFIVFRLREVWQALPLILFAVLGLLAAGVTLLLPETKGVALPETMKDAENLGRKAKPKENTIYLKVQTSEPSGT
Kind of data set: Inhibitory effect of catalposide on OCT1 transport activity. In kind it is in vitro ADME. The settings on record: probe 0.1 μM [3H]MPP+, catalposide 0–100 μM.

The target in data set [2] is T2, OCT2 (Homo sapiens, UniProt O15244).
T2 sequence (O15244 1-555): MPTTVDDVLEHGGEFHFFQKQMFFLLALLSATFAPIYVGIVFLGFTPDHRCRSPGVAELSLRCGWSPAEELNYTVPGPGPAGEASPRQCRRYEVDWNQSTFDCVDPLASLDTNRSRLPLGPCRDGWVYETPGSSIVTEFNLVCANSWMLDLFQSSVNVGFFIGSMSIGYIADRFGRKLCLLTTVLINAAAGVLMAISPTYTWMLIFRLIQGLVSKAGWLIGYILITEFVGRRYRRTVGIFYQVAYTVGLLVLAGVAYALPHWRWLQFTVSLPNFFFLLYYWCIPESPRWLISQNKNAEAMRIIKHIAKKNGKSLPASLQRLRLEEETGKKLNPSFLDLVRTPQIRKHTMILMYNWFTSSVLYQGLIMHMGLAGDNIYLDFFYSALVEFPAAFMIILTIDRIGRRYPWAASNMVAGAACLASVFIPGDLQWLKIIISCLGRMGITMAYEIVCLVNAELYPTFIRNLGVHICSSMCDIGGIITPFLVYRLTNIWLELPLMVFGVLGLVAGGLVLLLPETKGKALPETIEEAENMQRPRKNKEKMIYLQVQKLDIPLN
Kind of data set: Inhibitory effect of catalposide on OCT2 transport activity. The settings on record: probe 0.1 μM [3H]MPP+, catalposide 0–100 μM. In kind it is in vitro ADME.

Data set [3] is described as follows: Pharmacokinetics in rats after intravenous administration. In kind it is in vivo. The following applies: from the cited clearance values.
The target of data set [4] is T2, OCT2. Kind of data set: Uptake in HEK293 cells overexpressing OCT2. The following applies: OCT2, influx. In kind it is in vitro ADME.
Data set [5] deals with T3, BCRP (Homo sapiens, UniProt Q9UNQ0).
T3 sequence (Q9UNQ0 1-655): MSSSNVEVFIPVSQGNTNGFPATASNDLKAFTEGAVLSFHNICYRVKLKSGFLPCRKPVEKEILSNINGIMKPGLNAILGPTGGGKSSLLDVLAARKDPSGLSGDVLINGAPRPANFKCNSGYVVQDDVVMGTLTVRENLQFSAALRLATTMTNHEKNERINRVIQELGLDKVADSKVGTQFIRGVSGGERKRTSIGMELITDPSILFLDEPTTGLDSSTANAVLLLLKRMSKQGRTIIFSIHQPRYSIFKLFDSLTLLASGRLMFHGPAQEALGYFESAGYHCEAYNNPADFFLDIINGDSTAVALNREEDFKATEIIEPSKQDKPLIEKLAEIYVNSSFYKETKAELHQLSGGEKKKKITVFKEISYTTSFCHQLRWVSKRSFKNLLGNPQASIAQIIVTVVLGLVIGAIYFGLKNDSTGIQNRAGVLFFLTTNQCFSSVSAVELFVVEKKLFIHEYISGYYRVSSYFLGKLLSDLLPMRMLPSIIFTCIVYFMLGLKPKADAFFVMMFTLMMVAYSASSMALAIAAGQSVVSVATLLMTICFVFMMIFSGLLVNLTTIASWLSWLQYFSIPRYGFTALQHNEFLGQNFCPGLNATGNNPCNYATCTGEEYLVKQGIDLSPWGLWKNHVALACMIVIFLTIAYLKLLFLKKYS
Kind of data set: A-to-B and B-to-A transport in LLC-PK1 cells overexpressing BCRP. The settings on record: BCRP, efflux. In kind it is in vitro ADME.

The test system of data set [6] is colitis induced by trinitrobenzene sulfonic acid. The following applies: mice, cited from earlier work.
Data set [7] concerns the target P-gp (Homo sapiens, UniProt P08183). Kind of data set: Inhibitory effect of catalposide on P-gp transport activity. In kind it is in vitro ADME. The following applies: probe 0.1 μM [3H]digoxin, catalposide 1–100 μM.
The conditions of data set [8]: rat liver microsomes in the presence of NADPH; cited from earlier work. (Liver microsomes are a subcellular fraction often used to study metabolism.)
The target of data set [9] is T4, OAT1 (Homo sapiens, UniProt Q4U2R8).
T4 sequence (Q4U2R8 1-563): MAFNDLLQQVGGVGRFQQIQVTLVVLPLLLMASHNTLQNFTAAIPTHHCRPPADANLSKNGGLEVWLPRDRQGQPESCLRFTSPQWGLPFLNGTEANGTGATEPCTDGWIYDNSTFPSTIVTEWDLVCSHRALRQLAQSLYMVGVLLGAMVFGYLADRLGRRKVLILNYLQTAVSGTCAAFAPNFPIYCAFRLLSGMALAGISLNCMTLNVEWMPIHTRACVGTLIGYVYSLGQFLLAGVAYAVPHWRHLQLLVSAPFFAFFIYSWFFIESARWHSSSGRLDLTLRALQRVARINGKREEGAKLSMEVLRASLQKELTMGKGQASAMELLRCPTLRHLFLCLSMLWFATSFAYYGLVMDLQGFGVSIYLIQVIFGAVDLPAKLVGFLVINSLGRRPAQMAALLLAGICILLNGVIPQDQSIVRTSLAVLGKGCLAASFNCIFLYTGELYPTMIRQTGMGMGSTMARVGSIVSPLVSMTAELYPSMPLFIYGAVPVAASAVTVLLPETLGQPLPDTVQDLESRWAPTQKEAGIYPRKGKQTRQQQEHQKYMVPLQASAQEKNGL
The data set can be described thus: Uptake in HEK293 cells overexpressing OAT1. The following applies: OAT1, influx. In kind it is in vitro ADME.

Structures are written as SMILES. Entries after “also recorded” stand apart in the source; their conditions may differ.

Sequence of P-gp (P08183 whole entry): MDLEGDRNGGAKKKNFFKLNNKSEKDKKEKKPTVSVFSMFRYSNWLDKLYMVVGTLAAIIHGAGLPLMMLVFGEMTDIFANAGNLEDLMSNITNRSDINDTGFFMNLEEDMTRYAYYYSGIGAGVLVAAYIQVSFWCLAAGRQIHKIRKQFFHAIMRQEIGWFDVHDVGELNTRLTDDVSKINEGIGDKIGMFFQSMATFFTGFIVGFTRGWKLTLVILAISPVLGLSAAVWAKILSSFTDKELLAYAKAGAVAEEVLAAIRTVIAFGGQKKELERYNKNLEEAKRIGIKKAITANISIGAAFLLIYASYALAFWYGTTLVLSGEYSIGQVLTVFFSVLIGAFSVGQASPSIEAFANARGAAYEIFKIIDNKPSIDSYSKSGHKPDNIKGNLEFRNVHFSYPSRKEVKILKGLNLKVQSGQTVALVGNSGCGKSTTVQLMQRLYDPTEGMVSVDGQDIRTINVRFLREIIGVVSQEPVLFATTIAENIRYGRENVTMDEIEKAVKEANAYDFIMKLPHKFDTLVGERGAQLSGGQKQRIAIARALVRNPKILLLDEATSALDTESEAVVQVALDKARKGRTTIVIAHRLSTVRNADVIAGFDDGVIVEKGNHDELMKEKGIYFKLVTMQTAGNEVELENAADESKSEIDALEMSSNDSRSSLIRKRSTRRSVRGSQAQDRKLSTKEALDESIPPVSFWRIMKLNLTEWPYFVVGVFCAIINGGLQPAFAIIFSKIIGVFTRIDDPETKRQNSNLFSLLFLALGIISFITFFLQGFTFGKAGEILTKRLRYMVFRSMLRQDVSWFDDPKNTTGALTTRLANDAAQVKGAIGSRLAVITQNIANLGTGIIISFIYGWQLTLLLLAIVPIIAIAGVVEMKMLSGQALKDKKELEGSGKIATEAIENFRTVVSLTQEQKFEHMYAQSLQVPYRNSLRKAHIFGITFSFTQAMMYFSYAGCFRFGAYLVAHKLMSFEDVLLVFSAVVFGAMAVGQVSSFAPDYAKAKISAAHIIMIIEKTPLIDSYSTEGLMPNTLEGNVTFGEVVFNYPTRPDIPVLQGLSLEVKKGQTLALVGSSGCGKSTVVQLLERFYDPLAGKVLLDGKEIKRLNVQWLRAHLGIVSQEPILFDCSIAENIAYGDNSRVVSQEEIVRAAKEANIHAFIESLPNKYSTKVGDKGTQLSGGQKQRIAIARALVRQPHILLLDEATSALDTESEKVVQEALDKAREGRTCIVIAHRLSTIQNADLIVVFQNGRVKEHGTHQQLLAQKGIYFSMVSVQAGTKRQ

For the compound `O=C(O[C@H]1[C@@H]2C=CO[C@@H](O[C@@H]3O[C@H](CO)[C@@H](O)[C@H](O)[C@H]3O)[C@@H]2[C@@]2(CO)O[C@@H]12)c1ccc(O)cc1` [catalposide], the Inhibitor result in data set [1], in data set [2] and in data set [7] was “did not significantly inhibit” throughout. In [3], the “Share cleared by nonrenal clearance” value is “approximately 90%”. The Substrate entry in data set [4] was “not involved”; in [5], “not involved; also recorded: not a substrate”; in data set [9] it was “not involved”. The Histologic toxicity entry in [6] (1–2.5 mg/kg) is given as “without histologic toxicity”. In addition, the Severity of colitis entry in data set [6] (dose 0.5 mg/kg) is “reduced the severity of colitis”. Also, the Stability entry in data set [8] is “remained stable”.
